Our source for the IC50 values is patent publication US12291519B2, “2-hydroxycycloalkane-1-carbamoyl” (Idorsia Pharmaceuticals Ltd, priority 2019, dated 2025).

Some results are limits rather than exact numbers.

In assay [1] the target is human Gal-3 (hGal-3) (Homo sapiens (Human), UniProt P17931). Briefly: Competitive binding assay: biotinylated hGal-3 binding to microplate-adsorbed asialofetuin (ASF). The note with it: Activity on hGal-3; binding of biotinylated hGal-3 to ASF-coated plates; mean values. Here is the method: (§1) Evaluation of Compound Inhibitory Activity (IC50)
The inhibitory activity of compounds is determined in competitive binding assays. […] Alternatively, and preferably, a human Gal-1 version in which all six cysteines are substituted by serines may be used.
Briefly, compounds are serially diluted in DMSO (working dilutions).
Plates are incubated for 3 hours at 4° C. then washed with cold assay buffer (3×50 uL), incubated for 1 hour with 25 μL/well of a streptavidin-peroxidases solution (diluted in assay buffer to 80 ng/mL) at 4° C., followed by further washing steps with assay buffer (3×50 uL). Finally, 25 μL/well of ABTS substrate is added.
(§2) The calculated IC50 values may fluctuate depending on the daily assay performance. Fluctuations of this kind are known to those skilled in the art. IC50 values from several measurements are given as mean values.

The target of assay [2] is human Gal-1 (hGal-1). Briefly: Competitive binding assay: biotinylated hGal-1 binding to microplate-adsorbed asialofetuin (ASF). The note with it: Activity on hGal-1; binding of biotinylated hGal-1 to ASF-coated plates; mean values. The protocol:
as §1
The inhibitory activity of compounds is determined in competitive binding assays. This spectrophotometric assay measures the binding of biotinylated human Gal-3 (hGal-3) or human Gal-1 (hGAl-1), respectively, to a microplate-adsorbed glycoprotein, asialofetuin (ASF) (Proc Natl Acad Sci USA. 2013 Mar. 26; 110(13):5052-7.). Alternatively, and preferably, a human Gal-1 version in which all six cysteines are substituted by serines may be used.
Briefly, compounds are serially diluted in DMSO (working dilutions). ASF-coated 384 well pates are supplemented with 22.8 μL/well of biotinylated hGal-3 or hGal-1 in assay buffer (i.e. 300-1000 ng/mL biotinylated hGal-3 or hGal-1) to which 1.2 μL of compound working dilutions are added and mixed.
Plates are incubated for 3 hours at 4° C. then washed with cold assay buffer (3×50 uL), incubated for 1 hour with 25 μL/well of a streptavidin-peroxidases solution (diluted in assay buffer to 80 ng/mL) at 4° C., followed by further washing steps with assay buffer (3×50 uL). Finally, 25 μL/well of ABTS substrate is added. OD (410 nm) is recorded after 30 to 45 min and IC50 values are calculated.
as §2

human Gal-3 (hGal-3), sequence (P17931 whole entry): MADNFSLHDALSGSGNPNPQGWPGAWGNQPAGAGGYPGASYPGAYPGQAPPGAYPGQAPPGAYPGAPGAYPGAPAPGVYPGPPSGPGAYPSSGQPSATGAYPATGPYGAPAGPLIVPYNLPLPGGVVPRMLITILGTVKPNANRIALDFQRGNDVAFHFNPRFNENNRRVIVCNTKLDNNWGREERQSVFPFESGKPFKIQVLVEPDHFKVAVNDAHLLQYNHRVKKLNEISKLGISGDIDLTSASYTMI
human Gal-1 (hGal-1), sequence (P09382 2-135 limits assumed): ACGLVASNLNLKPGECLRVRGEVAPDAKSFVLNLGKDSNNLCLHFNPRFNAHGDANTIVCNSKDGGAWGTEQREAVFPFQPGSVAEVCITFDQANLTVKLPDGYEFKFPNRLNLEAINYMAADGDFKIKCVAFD

A word on the IC50: it is the midpoint of a concentration-inhibition curve. Low values mean higher potency, high ones lower potency. As to `O=C([C@@H]1O[C@H](CO)[C@H](O)[C@H](n2cc(-c3cc(F)c(F)c(F)c3)nn2)[C@H]1O)N(Cc1ccccc1)[C@H]1CCCC[C@@H]1O` [Example 1, (2R,3R,4S,5R,6R)-N-benzyl-3,5-dihydroxy-N-((1S,2S)-2-hydroxycyclohexyl)-6-(hydroxymethyl)-4-(4-(3,4,5-trifluorophenyl)-1H-1,2,3-triazol-1-yl)tetrahydro-2H-pyran-2-carboxamide], the concentration for half-maximal inhibition (IC50) in assay [1] is 154 nM; in assay [2], 6500 nM.
In the case of `O=C([C@@H]1O[C@H](CO)[C@H](O)[C@H](n2cc(-c3cc(F)c(F)c(F)c3)nn2)[C@H]1O)N(Cc1cccc(Cl)c1)[C@H]1CCCC[C@@H]1O` [Example 2, (2R,3R,4S,5R,6R)-N-(3-chlorobenzyl)-3,5-dihydroxy-N-((1S,2S)-2-hydroxycyclohexyl)-6-(hydroxymethyl)-4-(4-(3,4,5-trifluorophenyl)-1H-1,2,3-triazol-1-yl)tetrahydro-2H-pyran-2-carboxamide], the figures for the IC50 in assay [1] and in assay [2] were 301 nM and 22800 nM, respectively.
As for `C#Cc1cccc(CN(C(=O)[C@@H]2O[C@H](CO)[C@H](O)[C@H](n3cc(-c4cc(F)c(F)c(F)c4)nn3)[C@H]2O)[C@H]2CCCC[C@@H]2O)c1` [Example 3, (2R,3R,4S,5R,6R)-N-(3-ethynylbenzyl)-3,5-dihydroxy-N-((1S,2S)-2-hydroxycyclohexyl)-6-(hydroxymethyl)-4-(4-(3,4,5-trifluorophenyl)-1H-1,2,3-triazol-1-yl)tetrahydro-2H-pyran-2-carboxamide], the IC50 in assay [1] was 471 nM; in assay [2], > 100000 nM.
Take `O=C([C@@H]1O[C@H](CO)[C@H](O)[C@H](n2cc(-c3cc(F)c(F)c(F)c3)nn2)[C@H]1O)N(CCc1ccccc1)[C@H]1CCCC[C@@H]1O` [Example 4, (2R,3R,4S,5R,6R)-3,5-dihydroxy-N-((1S,2S)-2-hydroxycyclohexyl)-6-(hydroxymethyl)-N-phenethyl-4-(4-(3,4,5-trifluorophenyl)-1H-1,2,3-triazol-1-yl)tetrahydro-2H-pyran-2-carboxamide]: the IC50 in assay [1] is 677 nM; in assay [2], > 100000 nM.
`O=C([C@@H]1O[C@H](CO)[C@H](O)[C@H](n2cc(-c3cc(F)c(F)c(F)c3)nn2)[C@H]1O)N(Cc1ccc(Cl)cc1)[C@H]1CCCC[C@@H]1O` [Example 5, (2R,3R,4S,5R,6R)-N-(4-chlorobenzyl)-3,5-dihydroxy-N-((1S,2S)-2-hydroxycyclohexyl)-6-(hydroxymethyl)-4-(4-(3,4,5-trifluorophenyl)-1H-1,2,3-triazol-1-yl)tetrahydro-2H-pyran-2-carboxamide]: the IC50 in assay [1] was determined as 174 nM; in assay [2], 18200 nM.
`O=C([C@@H]1O[C@H](CO)[C@H](O)[C@H](n2cc(-c3cc(F)c(F)c(F)c3)nn2)[C@H]1O)N(Cc1ccccc1Cl)[C@H]1CCCC[C@@H]1O` [Example 6, (2R,3R,4S,5R,6R)-N-(2-chlorobenzyl)-3,5-dihydroxy-N-((1S,2S)-2-hydroxycyclohexyl)-6-(hydroxymethyl)-4-(4-(3,4,5-trifluorophenyl)-1H-1,2,3-triazol-1-yl)tetrahydro-2H-pyran-2-carboxamide]: the IC50 came out at 71 nM in assay [1] and 1920 nM in assay [2].
Regarding `O=C([C@@H]1O[C@H](CO)[C@H](O)[C@H](n2cc(-c3cc(F)c(F)c(F)c3)nn2)[C@H]1O)N(Cc1ccccc1C(F)(F)F)[C@H]1CCCC[C@@H]1O` [Example 7, (2R,3R,4S,5R,6R)-3,5-dihydroxy-N-((1S,2S)-2-hydroxycyclohexyl)-6-(hydroxymethyl)-N-(2-(trifluoromethyl)benzyl)-4-(4-(3,4,5-trifluorophenyl)-1H-1,2,3-triazol-1-yl)tetrahydro-2H-pyran-2-carboxamide], the IC50 in assay [1] is 57 nM; in assay [2] it was 1240 nM.
Consider `O=C([C@@H]1O[C@H](CO)[C@H](O)[C@H](n2cc(-c3cc(F)c(F)c(F)c3)nn2)[C@H]1O)N(Cc1ccncc1Cl)[C@H]1CCCC[C@@H]1O` [Example 8, (2R,3R,4S,5R,6R)-N-((3-chloropyridin-4-yl)methyl)-3,5-dihydroxy-N-((1S,2S)-2-hydroxycyclohexyl)-6-(hydroxymethyl)-4-(4-(3,4,5-trifluorophenyl)-1H-1,2,3-triazol-1-yl)tetrahydro-2H-pyran-2-carboxamide], for which the concentration for half-maximal inhibition (IC50) in assay [1] is 169 nM; in assay [2] it was 2490 nM.
In the case of `O=C([C@@H]1O[C@H](CO)[C@H](O)[C@H](n2cc(-c3cc(F)c(F)c(F)c3)nn2)[C@H]1O)N(Cc1cccnc1C(F)(F)F)[C@H]1CCCC[C@@H]1O` [Example 9, (2R,3R,4S,5R,6R)-3,5-dihydroxy-N-((1S,2S)-2-hydroxycyclohexyl)-6-(hydroxymethyl)-N-((2-(trifluoromethyl)pyridin-3-yl)methyl)-4-(4-(3,4,5-trifluorophenyl)-1H-1,2,3-triazol-1-yl)tetrahydro-2H-pyran-2-carboxamide], the figures for the IC50 in assay [1] and in assay [2] were 147 nM and 1640 nM, respectively.
In the case of `O=C([C@@H]1O[C@H](CO)[C@H](O)[C@H](n2cc(-c3cc(F)c(F)c(F)c3)nn2)[C@H]1O)N(Cc1cnccc1C(F)(F)F)[C@H]1CCCC[C@@H]1O` [Example 10, (2R,3R,4S,5R,6R)-3,5-dihydroxy-N-((1S,2S)-2-hydroxycyclohexyl)-6-(hydroxymethyl)-N-((4-(trifluoromethyl)pyridin-3-yl)methyl)-4-(4-(3,4,5-trifluorophenyl)-1H-1,2,3-triazol-1-yl)tetrahydro-2H-pyran-2-carboxamide], the figures for the IC50 in assay [1] and in assay [2] were 122 nM and 1690 nM, respectively.
In the case of `CO[C@@H]1[C@@H](n2cc(-c3cc(F)c(F)c(F)c3)nn2)[C@@H](O)[C@@H](CO)O[C@H]1C(=O)N(Cc1ccccc1C(F)(F)F)[C@H]1CCCC[C@@H]1O` [Example 11, (2R,3R,4S,5R,6R)-5-hydroxy-N-((1S,2S)-2-hydroxycyclohexyl)-6-(hydroxymethyl)-3-methoxy-N-(2-(trifluoromethyl)benzyl)-4-(4-(3,4,5-trifluorophenyl)-1H-1,2,3-triazol-1-yl)tetrahydro-2H-pyran-2-carboxamide], the half-maximal inhibitory concentration (IC50) in assay [1] was 55 nM; in assay [2], 497 nM.
With `CO[C@@H]1[C@@H](n2cc(-c3cc(F)c(F)c(F)c3)nn2)[C@@H](O)[C@@H](CO)O[C@H]1C(=O)N(Cc1ccccc1Cl)[C@H]1CCCC[C@@H]1O` [Example 12, (2R,3R,4S,5R,6R)-N-(2-chlorobenzyl)-5-hydroxy-N-((1S,2S)-2-hydroxycyclohexyl)-6-(hydroxymethyl)-3-methoxy-4-(4-(3,4,5-trifluorophenyl)-1H-1,2,3-triazol-1-yl)tetrahydro-2H-pyran-2-carboxamide], the IC50 in assay [1] was 52 nM; in assay [2], 497 nM.
Take `O=C([C@@H]1O[C@H](CO)[C@H](O)[C@H](n2cc(-c3cc(F)c(F)c(F)c3)nn2)[C@H]1O)N(Cc1ncccc1C(F)(F)F)[C@H]1CCCC[C@@H]1O` [Example 13, (2R,3R,4S,5R,6R)-3,5-dihydroxy-N-((1S,2S)-2-hydroxycyclohexyl)-6-(hydroxymethyl)-N-((3-(trifluoromethyl)pyridin-2-yl)methyl)-4-(4-(3,4,5-trifluorophenyl)-1H-1,2,3-triazol-1-yl)tetrahydro-2H-pyran-2-carboxamide]: the IC50 in assay [1] came out at 255 nM; in assay [2], 7250 nM.
As to `Nc1nc(Cl)c(CN(C(=O)[C@@H]2O[C@H](CO)[C@H](O)[C@H](n3cc(-c4cc(F)c(F)c(F)c4)nn3)[C@H]2O)[C@H]2CCCC[C@@H]2O)s1` [Example 15, (2R,3R,4S,5R,6R)-N-((2-amino-4-chlorothiazol-5-yl)methyl)-3,5-dihydroxy-N-((1S,2S)-2-hydroxycyclohexyl)-6-(hydroxymethyl)-4-(4-(3,4,5-trifluorophenyl)-1H-1,2,3-triazol-1-yl)tetrahydro-2H-pyran-2-carboxamide], the results for the IC50 in assay [1] and in assay [2] were 419 nM and 3180 nM, respectively.
In the same order, the values of `O=C([C@@H]1O[C@H](CO)[C@H](O)[C@H](n2cc(-c3cc(F)c(F)c(F)c3)nn2)[C@H]1O)N(Cc1cnoc1)[C@H]1CCCC[C@@H]1O` [Example 16, (2R,3R,4S,5R,6R)-3,5-dihydroxy-N-((1S,2S)-2-hydroxycyclohexyl)-6-(hydroxymethyl)-N-(isoxazol-4-ylmethyl)-4-(4-(3,4,5-trifluorophenyl)-1H-1,2,3-triazol-1-yl)tetrahydro-2H-pyran-2-carboxamide] are 476 nM and 28300 nM.
